From the METLIN SMRT retention time set (Domingo-Almenara et al. 2019)

Experiment: gradient 5% acetonitrile 3 min, to 50% in 2 min, to 85% in 15 min, held 3 min, 100 µL/min
Details: column: Zorbax Extend-C18 2.1 x 50 mm; eluents: water / acetonitrile, 0.1% formic acid
How it was run: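 Data were gathered over 3 months by HPLC coupled to a quadrupole time-of-flight mass spectrometer, operated in positive and negative ionization mode. Mixtures of ~100 pure standards ran on a Zorbax Extend-C18 column (2.1 × 50 mm, 1.8 μm) at 100 μL/min, with water and acetonitrile each containing 0.1% formic acid and dead and dwell volumes of 40 μL and 900 μL. Retention time was read from adduct peaks picked by computer and checked manually.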

Row | RP-LC retention time [s] | Compound
1 | 941 | COC(=O)c1[nH]c(C)c(C(=O)C(C)N(C(=O)c2ccccc2)C2CCCCC2)c1C (centres undefined)
2 | 630 | CC(=O)Nc1ccc(CCc2nc3ccc(C(=O)NCCC(C)C)cc3[nH]2)cc1
3 | 654 | Cc1cnc(C2CC2)n1C1CCN(S(=O)(=O)c2cccc(F)c2)C1 (centres undefined)
4 | 1060 | COCCN1CC2(CCCC2)N(Cc2cc(C(F)(F)F)ccc2Cl)CC1=O
5 | 964 | O=C(Cc1c[nH]c2ccccc12)N1CCC(Oc2ccc(-c3noc(C4CC4)n3)cc2)C1 (centres undefined)
6 | 646 | O=[N+]([O-])c1ccccc1S(=O)(=O)Nc1cccc(-c2ccc(N3CCOCC3)nn2)c1
7 | 1070 | O=C(Nc1cccc(OCc2nnc(-c3ccc(Cl)cc3)o2)c1)c1ccccn1
8 | 1050 | CC(C)(C)c1noc(-c2ccc(-n3cnc(C(=O)NCc4ccccc4F)c3)nc2)n1
9 | 901 | CCc1cccc(NC(=O)N2CCc3nc(-c4ccccc4)ncc3C2)c1
10 | 795 | CCc1nnc(-c2ccc(NC(=O)CCc3ccc(OC)cc3)cc2)o1
11 | 867 | O=C(NC1CCCC1)c1cn(-c2ncccc2-c2nc(-c3ccccc3)no2)cn1
12 | 813 | CC(C)(C)C(O)CCNC(=O)c1ccc(C(F)(F)F)cc1 (centres undefined)
13 | 759 | COc1cccc(S(=O)(=O)N2CCC3(CC2)NCCCN=C3NC2CCCCC2)c1
14 | 955 | Cc1ccc(C)c(N2CCN(c3ccnc(SCC(=O)Nc4ccc(C)c(F)c4)n3)CC2)c1
15 | 708 | Cc1ccc(NC(=O)Cn2nc3n(c2=O)CCCCC3)cc1
16 | 595 | CN1CC2(CCN(C(=O)NC3CCCCC3)CC2)CC1C(=O)N1CCOCC1 (centres undefined)
17 | 670 | Cc1ccc(CNC(=O)CNC(=O)N2CCSc3nc(C)cc(C)c32)cc1
18 | 1220 | Cc1nn(-c2nc(-c3ccccc3)cs2)c(C)c1CC(=O)Nc1ccccc1Cl
19 | 687 | COC(=O)c1cccc(NC(=O)C2CC(=O)N(c3ccc4c(c3)CCN4C(C)=O)C2)c1 (centres undefined)
20 | 715 | O=C(CC(SCCO)c1ccc([N+](=O)[O-])cc1)c1ccco1 (centres undefined)
21 | 697 | CCn1c(-c2ccccc2)cc(C(=O)N(C)C)c1C
22 | 801 | CCc1noc(-c2ccnc(-n3cnc(C(=O)NCC4CC4)c3)c2)n1
23 | 610 | NC1(C(=O)N[C@@H](CCO)c2ccc(Cl)cc2)CCN(c2ncnc3[nH]ccc23)CC1

Row | RP-LC retention time [s] | Compound
24 | 827 | Cc1cc(Cl)ccc1NS(=O)(=O)c1ccc2c(c1)NC(=O)C(C(=O)N1CCCC1)S2 (centres undefined)
25 | 1030 | COc1ccc(-c2noc(Cn3ccn4nc(-c5ccccc5)cc4c3=O)n2)cc1
26 | 838 | Nc1ncnc(Nc2cccc3c2CCCC3)c1[N+](=O)[O-]
27 | 649 | Fc1ccc2[nH]c(CN3CCN(c4ccccn4)CC3)cc2c1
28 | 1090 | COc1cc(OC)cc(-c2noc(Cn3nc(-c4ccc(C)cc4)ccc3=O)n2)c1
29 | 877 | C[C@H](CSC(=O)c1ccccc1)C(=O)N1c2ccccc2C[C@H]1C(=O)O
30 | 581 | O=C1CCN(C(=O)c2cccs2)CCCC(CO)CCN1 (centres undefined)
31 | 1160 | O=c1c2cc(-c3ccc(Br)cc3)nn2cnn1Cc1nc(-c2ccc3c(c2)OCO3)no1
32 | 942 | COc1cccc(CNC(=O)C2(C)CCCN(C(=O)Nc3ccccc3Br)C2)c1 (centres undefined)
33 | 812 | CCN1C(=O)c2cc(C(=O)NCc3cccc(C)c3)nn2CC1(C)C(=O)NC1CCCC1 (centres undefined)
34 | 623 | COCC1CN(S(=O)(=O)Cc2cccc(F)c2)CC12CCNCC2 (centres undefined)
35 | 836 | CCOC(=O)Cc1nnc(-c2cc(OC)cc(OC)c2)o1
36 | 1310 | Cc1ccc(-c2nnc(-c3ccc(N4CCC(C)CC4)nc3)o2)cc1
37 | 959 | Cc1cc(-c2nnc(-c3ccc(F)cc3)o2)c(C)n1CC(=O)Nc1ccccc1F
38 | 930 | COc1ccc(Cl)cc1NC(=O)Cn1nc2c(Oc3ccccc3C)nccn2c1=O
39 | 577 | Cc1nc(CSc2nnc3ccc(-c4cccnc4)nn23)cs1
40 | 617 | c1cn(-c2cc(NC3CCCCC3)ncn2)cn1
41 | 587 | O=C(Cn1ccc2c(SCc3ccccc3)nccc21)NCCCN1CCCC1
42 | 690 | COc1ccc(-c2cc(N3CCC(NC(=O)c4ccc5c(c4)OCO5)C3)n[nH]2)cc1 (centres undefined)
43 | 748 | C[C@@H](C(=O)NCC1(CC(=O)O)CCCCC1)n1nnc2ccccc2c1=O
44 | 643 | O=C(NC1CCN(c2cc(-c3ccc(Cl)cc3)[nH]n2)C1)c1ccncc1 (centres undefined)
45 | 701 | COc1ccc2oc(-c3ccncc3)cc(=O)c2c1
46 | 619 | Cc1ccc(CNCc2ccc3c(c2)n(C)c(=O)n3C)cc1

Row | RP-LC retention time [s] | Compound
47 | 923 | O=C(C1CCC1)N1CCc2sc(S(=O)(=O)NCc3ccccc3Cl)cc2C1
48 | 899 | CCCS(=O)(=O)NCc1ccc2c(c1)CCN2C(=O)c1cccc(C)c1
49 | 742 | CC(C)C(=O)NCCC1CCN(C(=O)Nc2cc(F)ccc2F)CC1
50 | 833 | CC(C)n1cc(S(=O)(=O)Nc2ccc(C#N)cc2)c2cccnc21
51 | 1170 | CCOc1ccc(-n2nnc(-c3nc(-c4ccccc4OC)cs3)c2N)cc1
52 | 742 | O=C(Nc1cnn(-c2ncncc2N2CCSCC2)c1)NC1CCCCC1
53 | 717 | CCn1cc(S(=O)(=O)N2CCC(c3nn(C)c(=O)n3C3CCCC3)CC2)cn1
54 | 756 | Cc1ccc2c(c1)C(=O)NC1(CCN(C(=O)c3cccc(F)c3)CC1)N2C
55 | 909 | CCc1cccc(C)c1NC(=O)Cn1c(=O)n(-c2ccc(C)cc2)c(=O)c2c1cc(C)n2C
56 | 742 | c1ccc(SCc2nnc3sc(-c4cccnc4)nn23)cc1
57 | 588 | Cc1ccn2cc(CNS(=O)(=O)c3ccc(-c4ccccc4)cc3)nc2c1
58 | 796 | CCc1nc(-c2ccc3c(c2)CCN3C(=O)Cc2ccc(NC(C)=O)cc2)no1
59 | 914 | CCc1noc(NC(C)=O)c1-c1ccc(C)c(S(=O)(=O)Nc2ccc(C)cc2Cl)c1
60 | 596 | COc1cccc(CN2CCC3(CC2)c2[nH]c4ccccc4c2CCN3C)c1
61 | 1300 | CCOc1ccc(-c2cc3c(=O)n(Cc4nc(-c5ccc(CC)cc5)no4)ncn3n2)cc1
62 | 558 | CN1CCCc2cc(C(CNC(=O)C(=O)NCCN3CCOCC3)N3CCCCC3)ccc21 (centres undefined)
63 | 1060 | CCOc1ccc(-c2noc(CN3N=NC4C(=O)N(c5ccc(C(C)C)cc5)C(=O)C43)n2)cc1OC (centres undefined)
64 | 607 | CC(=O)N1CCN(c2ncc(C(=O)Nc3ccccc3)c(N)n2)CC1
65 | 578 | CCCN1CCN(C(=O)CN2CCN(Cc3ccccc3)C2=O)CC1
66 | 849 | Cc1ccc(Cl)cc1NC(=O)N1CCC(CC(=O)NCc2ccc(F)cc2)CC1
67 | 1020 | CC1CCc2onc(C(=O)N(C)Cc3ccccc3)c2C1 (centres undefined)
68 | 674 | CCc1nnc([C@@H]2CC(F)(F)CN2C(=O)Cc2cc(C)no2)o1
69 | 743 | O=C(c1ccc(Cl)s1)N1CCN(S(=O)(=O)C2CC2)CC1

Row | RP-LC retention time [s] | Compound
70 | 1170 | CCc1cc(=O)n(CC(=O)N2CCc3ccccc32)c(-c2ccccc2)n1
71 | 682 | CNCc1cc(-c2ccccc2F)n(S(=O)(=O)c2cccnc2)c1
72 | 838 | CCn1cc(CCNC(=O)Nc2ccc(Br)cc2F)c2cccnc21
73 | 689 | Cc1ccc(N2CC(C(=O)NCCn3cnc(-c4ccccc4)cc3=O)CC2=O)cc1C (centres undefined)
74 | 743 | O=C1CCN(C(=O)[C@@H]2CCCN2C(=O)C2CCCCC2)CCCCCCN1
75 | 590 | O=C(C1CCC1)N1CC(N(Cc2ccncc2)CC2CC2)C1
76 | 681 | COc1ccccc1Nc1c(-c2cccc(O)c2)nc2cnccn12
77 | 706 | CCC1CN(C(=O)N2CCC(C(=O)NCCc3ccco3)CC2)c2cc(C)ccc2O1 (centres undefined)
78 | 696 | CC1CCCN(CC2CCN(S(=O)(=O)c3cccc(Cl)c3)CC2)C1 (centres undefined)
79 | 779 | CN1c2cc(F)ccc2C(=O)NC12CCN(C(=O)Cc1ccccc1)CC2
80 | 779 | CCn1c(=O)c2c(cc(C)n2C)n(CC(=O)Nc2cc(OC)cc(OC)c2)c1=O
81 | 936 | COC(=O)C1CCN(S(=O)(=O)CCCOc2cccc3c2OC(C)(C)C3)CC1
82 | 810 | O=C(NC1CCCCC1N1C(=O)CSC1=O)c1cc(Cl)ccc1Cl (centres undefined)
83 | 1020 | CC(C)n1c(=O)sc2cc(S(=O)(=O)N3CCC(C(=O)NCCC4=CCCCC4)CC3)ccc21
84 | 946 | Nc1ccccc1C(=O)NC(=O)Nc1ccc(Oc2ncc(Br)cn2)c(Cl)c1
85 | 848 | CCCN1C(=O)c2c(C(=O)NCc3ccc(C)cc3)ncn2CC1(C)C(=O)NC1CCCC1 (centres undefined)
86 | 684 | O=C(NCc1ccccc1)C1CC(=O)N(c2n[nH]c3cccc(F)c23)C1 (centres undefined)
87 | 656 | CCCNC(=O)C1CCCN(c2ccc(SCC(=O)Nc3cc(C)ccc3C)nn2)C1 (centres undefined)
88 | 849 | O=C(c1ccc(Br)cc1)N1CCN(c2cc(-c3ccccc3)[nH]n2)CC1
89 | 850 | Cc1ccc(NC(=O)C2CCCN(S(=O)(=O)c3c[nH]c(C(=O)N4CCCC4)c3)C2)cc1 (centres undefined)
